Source: ChEMBL document CHEMBL1147171, “Synthesis and antiplasmodial activity of new N-[3-(4-{3-[(7-chloroquinolin-4-yl)amino]propyl}piperazin-1-yl)propyl]carboxamides” (Bioorg Med Chem, 2007)

Experiments:
L6 = assay: Cytotoxicity against L6 cells; type: cell-based; conditions: Rattus norvegicus
Plasmodium falciparum [1] = assay: Antiparasitic activity against chloroquine-sensitive Plasmodium falciparum NF54 in erythrocytes by [3H]hypoxanthine uptake; type: functional, organism-based
Plasmodium falciparum [2] = assay: Antiparasitic activity against chloroquine, pyrimethamine-resistant Plasmodium falciparum K1 in erythrocytes by [3H]hypoxanthine uptake; type: functional, organism-based
Plasmodium falciparum [3] = assay: Relative activity against Plasmodium falciparum NF54 and K1 as IC50 ratio; type: functional

Row | Compound | IC50 (L6) [nM] | IC50 (Plasmodium falciparum [1]) [nM] | IC50 (Plasmodium falciparum [2]) [nM] | Ratio IC50 (Plasmodium falciparum [3])
1 | CCOc1ccc(C(=O)NCCCN2CCN(CCCNc3ccnc4cc(Cl)ccc34)CC2)cc1 | 5300 | 8 | 12 | 0.67
2 | NC(=O)c1ccc(C(=O)NCCCN2CCN(CCCNc3ccnc4cc(Cl)ccc34)CC2)cc1 | – | 83 | 249 | 0.33
3 | O=C(CCCc1c[nH]c2ccccc12)NCCCN1CCN(CCCNc2ccnc3cc(Cl)ccc23)CC1 | 6500 | 15 | 69 | 0.22
4 | O=C(Cc1ccc(Cl)cc1Cl)NCCCN1CCN(CCCNc2ccnc3cc(Cl)ccc23)CC1 | 15100 | 8 | 24 | 0.34
5 | O=C(CCCCc1ccccc1)NCCCN1CCN(CCCNc2ccnc3cc(Cl)ccc23)CC1 | 9400 | 12 | 54 | 0.22
6 | O=C(Cc1c(Cl)cccc1Cl)NCCCN1CCN(CCCNc2ccnc3cc(Cl)ccc23)CC1 | 5300 | 11 | 36 | 0.32
7 | O=C(CCCOc1ccccc1)NCCCN1CCN(CCCNc2ccnc3cc(Cl)ccc23)CC1 | 9300 | 12 | 73 | 0.16
8 | O=C(NCCCN1CCN(CCCNc2ccnc3cc(Cl)ccc23)CC1)c1ccc(Cl)c([N+](=O)[O-])c1 | 11300 | 20 | 43 | 0.47
9 | COc1ccc(C(=O)NCCCN2CCN(CCCNc3ccnc4cc(Cl)ccc34)CC2)cc1OC | – | 36 | 447 | 0.08
10 | O=C(NCCCN1CCN(CCCNc2ccnc3cc(Cl)ccc23)CC1)c1ccc(C(=O)c2ccccc2)cc1 | – | 1540 | 3070 | 0.5
11 | CCN(CC)CCCC(C)Nc1ccnc2cc(Cl)ccc12 (stereo not given) [CHLOROQUINE] | 7700 | – | – | –
12 | O=C(NCCCN1CCN(CCCNc2ccnc3cc(Cl)ccc23)CC1)c1ccc(F)c(F)c1 | 10000 | 7 | 13 | 0.54
13 | O=C(CCCC1CCCCC1)NCCCN1CCN(CCCNc2ccnc3cc(Cl)ccc23)CC1 | – | 156 | 272 | 0.57
14 | O=C(CC1CCCCC1)NCCCN1CCN(CCCNc2ccnc3cc(Cl)ccc23)CC1 | 7200 | 10 | 27 | 0.37
15 | O=C(NCCCN1CCN(CCCNc2ccnc3cc(Cl)ccc23)CC1)c1ccccc1C(=O)c1ccccc1 | 3200 | 10 | 17 | 0.59
16 | O=C(NCCCN1CCN(CCCNc2ccnc3cc(Cl)ccc23)CC1)C(c1ccccc1)c1ccccc1 | 9300 | 25 | 106 | 0.24
17 | O=C(NCCCN1CCN(CCCNc2ccnc3cc(Cl)ccc23)CC1)c1cc(F)cc(F)c1 | 11600 | 10 | 26 | 0.39
18 | CCCCCC(=O)NCCCN1CCN(CCCNc2ccnc3cc(Cl)ccc23)CC1 | – | 338 | 900 | 0.38
19 | CC(C)=CC(=O)NCCCN1CCN(CCCNc2ccnc3cc(Cl)ccc23)CC1 | 30000 | 23 | 65 | 0.36
20 | O=C(CCCc1ccccc1)NCCCN1CCN(CCCNc2ccnc3cc(Cl)ccc23)CC1 | 11000 | 17 | 61 | 0.28
21 | CCc1ccc(C(=O)NCCCN2CCN(CCCNc3ccnc4cc(Cl)ccc34)CC2)cc1 | 3900 | 8 | 13 | 0.62
22 | Cc1ccccc1C(=O)NCCCN1CCN(CCCNc2ccnc3cc(Cl)ccc23)CC1 | – | 10 | 34 | 0.29
23 | O=C(Cc1cccc2ccccc12)NCCCN1CCN(CCCNc2ccnc3cc(Cl)ccc23)CC1 | 6200 | 13 | 41 | 0.32
24 | O=C(NCCCN1CCN(CCCNc2ccnc3cc(Cl)ccc23)CC1)c1ccc(Oc2ccccc2)cc1 | 1400 | 9 | 15 | 0.6
25 | CC(=O)CCC(=O)NCCCN1CCN(CCCNc2ccnc3cc(Cl)ccc23)CC1 | 11000 | 59 | 380 | 0.15
26 | O=C(NCCCN1CCN(CCCNc2ccnc3cc(Cl)ccc23)CC1)c1cccc(OC(F)(F)F)c1 | 8500 | 12 | 15 | 0.8
27 | O=C(NCCCN1CCN(CCCNc2ccnc3cc(Cl)ccc23)CC1)c1cccc(C(F)(F)F)c1 | 30100 | 37 | 53 | 0.68
28 | CC(C)CC(=O)NCCCN1CCN(CCCNc2ccnc3cc(Cl)ccc23)CC1 | – | 13 | 78 | 0.17
29 | COc1cccc(C(=O)NCCCN2CCN(CCCNc3ccnc4cc(Cl)ccc34)CC2)c1 | 9300 | 10 | 28 | 0.36
30 | O=C(NCCCN1CCN(CCCNc2ccnc3cc(Cl)ccc23)CC1)c1cc(Cl)cc(Cl)c1 | 3000 | 7 | 12 | 0.58
